# According to patent publication US20210387996A1, “TRICYCLIC COMPOUNDS FOR THE TREATMENT AND PROPHYLAXIS OF HEPATITIS B VIRUS DISEASE” (priority 2018, published 2021):
# What was measured:
# [1] = test system: HBeAg level in HepDES19 cells (surrogate marker for cccDNA); test: Engineered HepDES19 primary screen assay (HBeAg as surrogate marker for cccDNA); type: cell-based, HBV; conditions: Hepatitis B virus, HepDES19, 120 h, read-out: IC50 (HBeAg level, HepDES19 primary screen assay)
# Text: The assay was employed to screen for novel cccDNA inhibitors. HepDES19 is a cccDNA-producing cell line. In this cell line, HBeAg in the cell culture supernatant as surrogate marker, as HBeAg production depends on cccDNA level and activity. HepDES19 is an engineered cell line which contains a 1.1 unit length HBV genome, and pgRNA transcription from the transgene is controlled by Tetracycline (Tet). In the absence of Tet, pgRNA transcription will be induced, but HBV e antigen (HBeAg) could not be produced from this pgRNA due to very short leader sequence before the HBeAg start codon and the start codon is disrupted. Only after cccDNA is formed, the missing leader sequence and start codon mutation would be restored from the 3′-terminal redundancy of pgRNA, and then HBeAg could be synthesized. Therefore, HBeAg could be used as a surrogate marker for cccDNA (Zhou, T. et al., Antiviral Res. (2006), 72(2), 116-124; Guo, H. et al., J. Virol. (2007), 81(22), 12472-12484).
# HepDES19 cells were seeded at 2×10^6 cells per T150 flask and cultured with the culture medium (Dulbecco's Modified Eagle Medium: Nutrient Mixture F-12 [DMEM-F12, Gibco Cat. 11320-82], 10% Fetal Bovine Serum [FBS, Clontech Cat. 631101], 0.1 mM Non-Essential Amino Acids Solution [NEAA, Gibco Cat. 11140-050], 50 μg/mL Penicillin-Streptomycin [PS, Invitrogen Cat. 15140-163], 500 μg/mL Geneticin [G418, Invitrogen Cat. 10131-027]) containing 3 μg/mL Tet (Sigma, Cat. 87128) for 5 days. Cells were then seeded at 4×10^6 cells per T150 in the same culture medium as described above in the absence of Tet for 8 days. Cells were then harvested and frozen at density of 2×10^6 cells per mL. For compound testing, the frozen cells were thawed and seeded into 96-well plates at a density of 6×10^4 cells per well. At 24 hours after seeding, half log serial dilutions of compounds made with Dimethyl sulfoxide (DMSO, Sigma, Cat. D2650) were further diluted with the same culture medium as described above before they were added to the cells to reach desired final compound concentrations and 1% DMSO concentration. Plates were then incubated at 37° C. for another 5 days before measurement of HBeAg level and cell viability. Intracellular HBeAg level were measured with enzyme-linked immunosorbent assay (ELISA) kit (Shanghai Kehua Diagnostic Medical Products Co., Ltd). Cell viability was assessed using Cell Counting Kit-8 (Donjindo, Cat. CK04-20). IC50 values were derived from the dose-response curve using 4 parameter logistic curve fit method.
# The compounds of the present invention were tested for their capacity to inhibit extracellular HBeAg level as described herein.
# [2] = test system: HBV (extracellular HBsAg) in PHH; test: Cryopreserved primary human hepatocytes (PHH) HBV infection assay, extracellular HBsAg (CLIA); type: cell-based; conditions: Hepatitis B virus, Hepatocyte, 216 h, read-out: HBsAg IC50
# Method: This assay is used to confirm the anti-HBV effect of the compounds in HBV PHH infection assay. Cryopreserved PHH (BioreclamationIVT, Lot YJM) was thawed at 37° C. and gently transferred into pre-warmed InVitroGRO HT medium (BioreclamationIVT, Cat. S03317). The mixture was centrifuged at 70 relative centrifugal force (RCF) for 3 mins at RT, and the supernatant was discarded. Pre-warmed InVitroGRO CP medium (BioreclamationIVT, Cat #S03316) was added to the cell pellet to gently re-suspend cells. The cells were seeded at the density of 5.8×10^4 cells per well to collagen I coated 96-well plate (Gibco, Cat. A1142803) with the InVitroGRO CP medium. All plates were incubated at 37° C. with 5% CO2 and 85% humidity.
# At 20 hours after plating, the medium was changed to PHH culture medium (Dulbecco's Modified Eagle Medium (DMEM)/F12 (1:1) (Gibco, Cat. 11320-033), 10% fetal bovine serum (Gibco Cat. 10099141), 100 U/mL penicillin, 100 μg/mL streptomycin (Gibco, Cat. 151401-122), 5 ng/mL human epidermal growth factor (Invitrogen Cat. PHG0311L), 20 ng/mL dexamethasone (Sigma, Cat. D4902) and 250 ng/mL human recombinant insulin (Gibco, Cat. 12585-014)). And the cells were incubated at 37° C. with 5% CO2 and 85% humidity for 4 hours. The medium was then changed to pre-warmed PHH culture medium containing 4% polyethylene glycol (PEG) MW8000 (Sigma, Cat. P1458-50ML) and 1% DMSO (Sigma, Cat. D2650). 5.8×10^6 genomic equivalents of HBV were added into the medium.
# At 24 hours post-infection, the cells were gently washed with PBS and refreshed with PHH culture medium supplemented with 1% DMSO, and 0.25 mg/mL Matrix gel (Corning, Cat. 356237) at 200 μL per well. All plates were immediately placed in at 37° C. CO2 incubator.
# 24 hours later, serial dilutions of compounds made with DMSO were further diluted with the same culture medium (PHH culture medium supplemented with 1% DMSO and 0.25 mg/mL Matrix gel as described above) before they were added to the cells to reach desired final compound concentrations and 1% DMSO concentration. The medium containing the compounds were refreshed every three days.
# At 9 days post-compound treatment, extracellular HBsAg level were measured with Chemiluminescence Immuno Assay (CLIA) kit (Autobio, HBsAg Quantitative CLIA). Extracellular HBV DNA was extracted by MagNA Pure 96 system (Roche) and then determined by quantitative PCR with the following primers and probe: […]
# HBsAg IC50 and HBV DNA IC50 values were derived from the dose-response curve using 4 parameter logistic curve fit method. The compounds of formula (I) have HBsAg IC50<20 μM, particularly <1 μM; and HBV DNA IC50<50 μM.
Compound,IC50 [1] [µM],IC50 [2] [µM]
"O=C1c2oc3c(Cl)cccc3c(=O)c2CCN1c1ccc(Cl)c(C(F)(F)F)c1 [Example 22, 9-chloro-2-(4-chloro-3-(trifluoromethyl)phenyl)-3,4-dihydro-2H-chromeno[2,3-c]pyridine-1,5-dione]",25.6,3.44
"O=C1c2oc3c(Cl)cccc3c(=O)c2CCN1c1ccc(F)cc1 [Example 14, 9-chloro-2-(4-fluorophenyl)-3,4-dihydro-2H-chromeno[2,3-c]pyridine-1,5-dione]",2.07,9.85
"COc1ccc(N2CCc3c(oc4c(Cl)cccc4c3=O)C2=O)cc1 [Example 9, 9-chloro-2-(4-methoxyphenyl)-3,4-dihydro-1H-chromeno[2,3-c]pyridine-1,5(2H)-dione]",2.73,3.52
"COc1cc(Cl)ccc1N1CCc2c(oc3c(Cl)cccc3c2=O)C1=O [Example 17, 9-chloro-2-(4-chloro-2-methoxyphenyl)-3,4-dihydro-2H-chromeno[2,3-c]pyridine-1,5-dione]",2.4,14.7
"COc1cccc(N2CCc3c(oc4c(Cl)cccc4c3=O)C2)c1 [Example 41, 9-chloro-2-(3-methoxyphenyl)-1,2,3,4-tetrahydro-5H-chromeno[2,3-c]pyridin-5-one]",19.2,30.7
"COc1ccc(N2CCc3c(oc4c(Cl)cccc4c3=O)C2)cc1 [Example 40, 9-chloro-2-(4-methoxyphenyl)-1,2,3,4-tetrahydro-5H-chromeno[2,3-c]pyridin-5-one]",5.9,11.6
"O=C1c2oc3c(Cl)cccc3c(=O)c2CCN1c1ccc(Cl)cc1F [Example 29, 9-chloro-2-(4-chloro-2-fluorophenyl)-3,4-dihydro-2H-chromeno[2,3-c]pyridine-1,5-dione]",2.36,2.17
"O=C1c2oc3c(Cl)cccc3c(=O)c2CCN1c1ccccc1 [Example 19, 9-chloro-2-phenyl-3,4-dihydro-2H-chromeno[2,3-c]pyridine-1,5-dione]",0.56,16.9
"O=c1c2c(oc3c(Cl)cccc13)CN(c1ccc(C(F)(F)F)cc1)CC2 [Example 39, 9-chloro-2-(4-(trifluoromethyl)phenyl)-1,2,3,4-tetrahydro-5H-chromeno[2,3-c]pyridin-5-one]",0.96,5.65
"O=C1c2oc3c(Cl)cccc3c(=O)c2CCN1c1ccc(Cl)cc1 [Example 12, 9-chloro-2-(4-chlorophenyl)-3,4-dihydro-1H-chromeno[2,3-c]pyridine-1,5(2H)-dione]",0.82,2.76
"O=C1c2oc3c(Cl)cccc3c(=O)c2CCN1c1ccc(C(F)(F)F)cc1 [Example 20, 9-chloro-2-(4-(trifluoromethyl)phenyl)-3,4-dihydro-2H-chromeno[2,3-c]pyridine-1,5-dione]",5.68,7.4
"O=C1c2oc3c(Cl)cccc3c(=O)c2CCN1c1ccc(Cl)nc1 [Example 16, 9-chloro-2-(6-chloropyridin-3-yl)-3,4-dihydro-2H-chromeno[2,3-c]pyridine-1,5-dione]",34.4,3.17
"O=C1c2oc3c(Cl)cccc3c(=O)c2CCN1c1ccc(Cl)c(Cl)c1 [Example 28, 9-chloro-2-(3,4-dichlorophenyl)-3,4-dihydro-2H-chromeno[2,3-c]pyridine-1,5-dione]",1.08,0.57
"O=C(O)C1CC(Oc2cc(Cl)ccc2N2CCc3c(oc4c(Cl)cccc4c3=O)C2=O)C1 (stereo not shown) [Example 26, 3-(5-chloro-2-(9-chloro-1,5-dioxo-1,3,4,5-tetrahydro-2H-chromeno[2,3-c]pyridin-2-yl)phenoxy)cyclobutane-1-carboxylic Acid]",,18.1
"O=C(O)C1CC(Oc2ccccc2N2CCc3c(oc4c(Cl)cccc4c3=O)C2=O)C1 (stereo not shown) [Example 25, 3-(2-(9-chloro-1,5-dioxo-1,3,4,5-tetrahydro-2H-chromeno[2,3-c]pyridin-2-yl)phenoxy)cyclobutane-1-carboxylic Acid]",,48.4
